Laboratory results taken from patent publication US7604939B2, “Methods of identifying active BRM expression-promoting HDAC inhibitors” (The Regents of the University of Michigan, priority 2005, dated 2009).
Read-outs that look alike come from different tables or passages of the source. Where a SMILES comes first, the peptide text is derived from it. [ ]: non-standard residue; d: D form. Aoe = N[C@@H](CCCCCC(=O)[C@@H]1CO1)C(=O)O

What was measured:
p16 expression = p16 expression by semi-quantitative RT-PCR in control cell lines; type: cell-based, human; conditions: 5uM on three consecutive days; H23 and H441 cell lines
HDAC3 = HDAC3 (Homo sapiens, UniProt O15379); conditions: cited from earlier work; for IC50: read-out: IC50 HDAC3
HDAC4 = HDAC4 (Homo sapiens, UniProt P56524); conditions: Class 2 HDAC; cited from earlier work
HDAC1 = HDAC1 (Homo sapiens, UniProt Q13547); conditions: cited from earlier work; for Sensitivity of HDAC1 to the inhibitor: Class 1 HDAC
HDAC6 = target: T1, HDAC6 (Homo sapiens, UniProt Q9UBN7); conditions: Class 2 HDAC; cited from earlier work
T1 sequence (Q9UBN7 1-1215): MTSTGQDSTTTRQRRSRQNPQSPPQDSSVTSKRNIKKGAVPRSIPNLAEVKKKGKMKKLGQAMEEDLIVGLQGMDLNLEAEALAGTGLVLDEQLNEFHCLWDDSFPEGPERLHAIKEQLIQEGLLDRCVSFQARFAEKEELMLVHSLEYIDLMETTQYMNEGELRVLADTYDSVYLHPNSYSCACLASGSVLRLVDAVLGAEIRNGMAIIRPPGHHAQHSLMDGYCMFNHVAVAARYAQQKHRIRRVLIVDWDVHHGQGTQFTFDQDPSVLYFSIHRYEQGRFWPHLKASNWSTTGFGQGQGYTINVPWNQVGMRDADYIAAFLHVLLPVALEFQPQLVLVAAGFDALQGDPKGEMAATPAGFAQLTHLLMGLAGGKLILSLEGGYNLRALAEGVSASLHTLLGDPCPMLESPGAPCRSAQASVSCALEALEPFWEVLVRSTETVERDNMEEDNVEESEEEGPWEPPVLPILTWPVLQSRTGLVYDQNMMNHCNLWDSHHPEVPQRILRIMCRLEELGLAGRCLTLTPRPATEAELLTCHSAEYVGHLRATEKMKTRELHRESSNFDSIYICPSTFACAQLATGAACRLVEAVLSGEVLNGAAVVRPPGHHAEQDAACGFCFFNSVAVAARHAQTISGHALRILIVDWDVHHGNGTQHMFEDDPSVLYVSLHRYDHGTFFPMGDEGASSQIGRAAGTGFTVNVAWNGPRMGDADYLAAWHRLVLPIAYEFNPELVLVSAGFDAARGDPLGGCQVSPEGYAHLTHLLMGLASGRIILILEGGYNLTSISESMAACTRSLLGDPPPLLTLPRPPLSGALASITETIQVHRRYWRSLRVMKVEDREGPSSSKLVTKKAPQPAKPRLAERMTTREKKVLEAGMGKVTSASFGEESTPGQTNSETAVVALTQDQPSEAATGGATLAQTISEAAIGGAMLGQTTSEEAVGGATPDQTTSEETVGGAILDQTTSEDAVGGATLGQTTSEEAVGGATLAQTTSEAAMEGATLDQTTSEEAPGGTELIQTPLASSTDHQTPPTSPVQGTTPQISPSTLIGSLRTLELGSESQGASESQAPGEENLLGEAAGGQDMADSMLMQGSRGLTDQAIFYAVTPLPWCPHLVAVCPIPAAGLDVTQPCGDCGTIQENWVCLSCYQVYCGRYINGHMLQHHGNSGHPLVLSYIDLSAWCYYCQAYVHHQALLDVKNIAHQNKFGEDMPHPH

H23 and SW13 cell lines = assay: Toxicity to BRG1/BRM-deficient cell lines; type: cell-based, human; conditions: most pronounced in the H23 and SW13 cell lines
HDAC10 = target: T2, HDAC10 (Homo sapiens, UniProt Q969S8); conditions: Class 2 HDAC; cited from earlier work
T2 sequence (Q969S8 1-669): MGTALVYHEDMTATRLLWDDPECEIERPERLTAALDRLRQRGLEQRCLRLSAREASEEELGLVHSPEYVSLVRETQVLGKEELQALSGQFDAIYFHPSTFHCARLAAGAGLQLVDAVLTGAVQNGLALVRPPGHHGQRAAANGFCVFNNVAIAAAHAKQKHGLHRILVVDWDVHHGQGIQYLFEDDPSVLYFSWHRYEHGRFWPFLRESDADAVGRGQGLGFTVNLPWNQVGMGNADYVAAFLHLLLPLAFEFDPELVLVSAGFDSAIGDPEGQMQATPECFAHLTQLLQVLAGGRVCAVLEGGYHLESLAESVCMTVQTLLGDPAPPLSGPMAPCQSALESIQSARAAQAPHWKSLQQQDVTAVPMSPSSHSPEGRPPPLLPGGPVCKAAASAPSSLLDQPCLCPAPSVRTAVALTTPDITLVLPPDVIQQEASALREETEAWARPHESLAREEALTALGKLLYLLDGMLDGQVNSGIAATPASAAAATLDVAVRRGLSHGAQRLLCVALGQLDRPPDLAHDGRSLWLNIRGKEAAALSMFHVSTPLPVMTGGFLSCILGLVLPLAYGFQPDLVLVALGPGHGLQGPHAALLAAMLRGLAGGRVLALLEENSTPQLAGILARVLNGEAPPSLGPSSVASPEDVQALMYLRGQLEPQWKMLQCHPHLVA

HDAC5 = HDAC5 (Homo sapiens, UniProt Q9UQL6); conditions: Class 2 HDAC; cited from earlier work
HDAC9 = HDAC9 (Homo sapiens, UniProt Q9UKV0); conditions: Class 2 HDAC; cited from earlier work
Class 3 HDACs = conditions: cited from earlier work
HDAC8 = target: T3, HDAC8 (Homo sapiens, UniProt Q9BY41); conditions: Class 1 HDAC; cited from earlier work
T3 sequence (Q9BY41 1-377): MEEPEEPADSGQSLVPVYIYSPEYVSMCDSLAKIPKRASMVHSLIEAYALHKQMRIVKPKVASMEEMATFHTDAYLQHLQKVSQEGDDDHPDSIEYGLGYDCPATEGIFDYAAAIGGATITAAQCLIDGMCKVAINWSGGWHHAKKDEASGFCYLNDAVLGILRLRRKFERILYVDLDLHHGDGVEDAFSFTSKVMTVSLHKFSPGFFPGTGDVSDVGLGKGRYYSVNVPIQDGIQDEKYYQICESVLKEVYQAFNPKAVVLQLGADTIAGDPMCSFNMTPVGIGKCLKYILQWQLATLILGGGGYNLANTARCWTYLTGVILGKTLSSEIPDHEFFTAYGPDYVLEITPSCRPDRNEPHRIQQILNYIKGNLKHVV

HDAC2 = HDAC2 (Homo sapiens, UniProt Q92769); conditions: Class 1 HDAC; cited from earlier work
BRM expression [1] = assay: BRM mRNA (RT-PCR) and protein (western blotting) expression in BRG1/BRM-deficient cell lines after treatment
From the text: This example describes the treatment of cells lines with undetectable BRG1 and BRM protein expression with various HDAC inhibitors or 5-aza-deoxycytidine (5-azaCdR). […] This upregulation effect was also examined in the six other BRG1/BRM-deficient cell lines, using RT-PCR.

BRM expression [2] = assay: Time course of BRM expression in SW13 cells with butyrate and after its removal; type: cell-based, human
Experimental: Cells were treated daily with sodium butyrate (5 mM). Total protein was extracted at 4, 12, 24, 36, […], and 72 hours after the first dosage. Upregulation of BRM with butyrate treatment was detected after 12 hours and reached a plateau between 24 and 48 hours. GAPDH was the loading control. […] Cells were treated with sodium butyrate at a final concentration of 5 mM for three consecutive days. On the fourth day, the medium was changed and cells were harvested at various time points for protein detection. BRM protein levels declined and returned to baseline after 4-5 days. (NaBut=sodium butyrate, un=untreated).
This Example describes an analysis of the temporal effects of HDAC inhibitors on BRM re-expression. In partciular, to understand how HDAC inhibitors affected BRM expression, the time course at which BRM expression in SW13 cells was induced by continued exposure to butyrate was determined. The upregulation of BRM expression was detected by western blot analysis at 12 hours and reached a plateau at 24 hours. Little change in BRM expression occurred with continued treatment for an additional 48 hours (FIG. 3A). This process was reversible, as BRM expression returned to pretreatment levels after removal of sodium butyrate. To further characterize this effect, SW13 cells were treated with butyrate for 72 hours, sodium butyrate was removed, and BRM levels were measured by western blotting from 0 to 6 days. The BRM protein levels remained elevated for 72 hours and returned to near baseline levels at 96 hours (FIG. 3B). In parallel with BRM protein, the BRM mRNA level determined by quantative RT-PCR, also remained elevated for 3 days, returning to baseline level by 4 days. These findings indicate the changes in BRM protein levels paralleled the changes in the BRM mRNA levels.

[3] = SW13, continued exposure, 5 mM daily (FIG. 3A)
[4] = SW13, treated 72 hours, then removed
[5] = SW13, treated 72 hours, then removed (FIG. 3B)

Sequence of HDAC1 (Q13547 whole entry): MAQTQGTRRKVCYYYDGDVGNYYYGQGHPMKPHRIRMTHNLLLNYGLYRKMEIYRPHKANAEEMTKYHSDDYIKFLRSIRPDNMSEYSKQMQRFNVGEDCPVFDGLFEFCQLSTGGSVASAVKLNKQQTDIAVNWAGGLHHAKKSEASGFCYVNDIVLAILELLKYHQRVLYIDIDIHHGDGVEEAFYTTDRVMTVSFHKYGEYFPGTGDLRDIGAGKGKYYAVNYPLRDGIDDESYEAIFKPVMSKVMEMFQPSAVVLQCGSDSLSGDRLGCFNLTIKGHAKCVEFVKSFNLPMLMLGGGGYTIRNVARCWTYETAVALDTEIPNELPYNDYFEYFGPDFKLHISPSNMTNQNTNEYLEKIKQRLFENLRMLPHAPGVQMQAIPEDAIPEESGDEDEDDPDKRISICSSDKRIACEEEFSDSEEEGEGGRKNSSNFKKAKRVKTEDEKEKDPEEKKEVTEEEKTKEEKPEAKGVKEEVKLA
Sequence of HDAC3 (O15379 whole entry): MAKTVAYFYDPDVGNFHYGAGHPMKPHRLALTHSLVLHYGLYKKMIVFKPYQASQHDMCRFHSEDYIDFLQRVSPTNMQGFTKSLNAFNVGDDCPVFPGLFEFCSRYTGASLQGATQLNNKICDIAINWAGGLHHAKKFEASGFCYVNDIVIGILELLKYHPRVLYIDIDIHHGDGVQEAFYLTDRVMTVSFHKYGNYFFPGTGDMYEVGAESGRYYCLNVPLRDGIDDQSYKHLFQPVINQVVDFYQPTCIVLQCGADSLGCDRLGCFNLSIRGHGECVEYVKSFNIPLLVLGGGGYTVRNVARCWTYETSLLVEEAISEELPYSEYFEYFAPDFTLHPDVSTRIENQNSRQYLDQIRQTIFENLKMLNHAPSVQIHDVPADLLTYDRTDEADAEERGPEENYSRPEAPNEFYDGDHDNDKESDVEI
Sequence of HDAC3 (Q9Y618 395-489 partner limits assumed): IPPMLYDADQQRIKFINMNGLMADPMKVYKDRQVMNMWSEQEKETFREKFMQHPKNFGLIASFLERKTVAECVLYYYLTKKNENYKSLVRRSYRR
Sequence of HDAC4 (P56524 whole entry): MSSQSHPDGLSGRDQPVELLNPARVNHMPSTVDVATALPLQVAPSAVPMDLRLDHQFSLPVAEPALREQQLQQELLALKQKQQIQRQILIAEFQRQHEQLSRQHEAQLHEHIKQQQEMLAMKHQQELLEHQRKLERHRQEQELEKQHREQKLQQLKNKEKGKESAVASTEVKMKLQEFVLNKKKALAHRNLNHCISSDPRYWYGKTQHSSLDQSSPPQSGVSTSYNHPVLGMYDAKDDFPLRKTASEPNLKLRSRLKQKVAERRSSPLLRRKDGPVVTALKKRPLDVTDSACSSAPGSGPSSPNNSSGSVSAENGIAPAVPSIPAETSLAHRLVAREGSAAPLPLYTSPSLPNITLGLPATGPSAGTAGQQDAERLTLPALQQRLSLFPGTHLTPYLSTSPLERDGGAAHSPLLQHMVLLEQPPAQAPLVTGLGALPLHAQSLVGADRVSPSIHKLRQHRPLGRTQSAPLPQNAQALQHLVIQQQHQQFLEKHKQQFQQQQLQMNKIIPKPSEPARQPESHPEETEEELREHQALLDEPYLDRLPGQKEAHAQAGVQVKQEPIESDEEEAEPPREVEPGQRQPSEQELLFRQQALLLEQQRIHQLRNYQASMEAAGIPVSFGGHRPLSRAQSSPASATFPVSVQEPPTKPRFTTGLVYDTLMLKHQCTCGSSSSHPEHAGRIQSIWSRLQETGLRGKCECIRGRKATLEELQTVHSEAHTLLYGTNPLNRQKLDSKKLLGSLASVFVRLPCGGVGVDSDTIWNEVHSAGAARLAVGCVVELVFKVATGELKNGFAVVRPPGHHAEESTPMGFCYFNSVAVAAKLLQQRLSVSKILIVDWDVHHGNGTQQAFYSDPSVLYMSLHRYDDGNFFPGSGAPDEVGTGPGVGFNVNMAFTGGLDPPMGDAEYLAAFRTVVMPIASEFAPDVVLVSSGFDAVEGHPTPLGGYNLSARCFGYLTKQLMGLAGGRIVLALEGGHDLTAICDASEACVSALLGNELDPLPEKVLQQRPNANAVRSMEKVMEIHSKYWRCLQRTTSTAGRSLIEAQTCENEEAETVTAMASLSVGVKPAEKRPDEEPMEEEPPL
Sequence of HDAC9 (Q9UKV0 whole entry): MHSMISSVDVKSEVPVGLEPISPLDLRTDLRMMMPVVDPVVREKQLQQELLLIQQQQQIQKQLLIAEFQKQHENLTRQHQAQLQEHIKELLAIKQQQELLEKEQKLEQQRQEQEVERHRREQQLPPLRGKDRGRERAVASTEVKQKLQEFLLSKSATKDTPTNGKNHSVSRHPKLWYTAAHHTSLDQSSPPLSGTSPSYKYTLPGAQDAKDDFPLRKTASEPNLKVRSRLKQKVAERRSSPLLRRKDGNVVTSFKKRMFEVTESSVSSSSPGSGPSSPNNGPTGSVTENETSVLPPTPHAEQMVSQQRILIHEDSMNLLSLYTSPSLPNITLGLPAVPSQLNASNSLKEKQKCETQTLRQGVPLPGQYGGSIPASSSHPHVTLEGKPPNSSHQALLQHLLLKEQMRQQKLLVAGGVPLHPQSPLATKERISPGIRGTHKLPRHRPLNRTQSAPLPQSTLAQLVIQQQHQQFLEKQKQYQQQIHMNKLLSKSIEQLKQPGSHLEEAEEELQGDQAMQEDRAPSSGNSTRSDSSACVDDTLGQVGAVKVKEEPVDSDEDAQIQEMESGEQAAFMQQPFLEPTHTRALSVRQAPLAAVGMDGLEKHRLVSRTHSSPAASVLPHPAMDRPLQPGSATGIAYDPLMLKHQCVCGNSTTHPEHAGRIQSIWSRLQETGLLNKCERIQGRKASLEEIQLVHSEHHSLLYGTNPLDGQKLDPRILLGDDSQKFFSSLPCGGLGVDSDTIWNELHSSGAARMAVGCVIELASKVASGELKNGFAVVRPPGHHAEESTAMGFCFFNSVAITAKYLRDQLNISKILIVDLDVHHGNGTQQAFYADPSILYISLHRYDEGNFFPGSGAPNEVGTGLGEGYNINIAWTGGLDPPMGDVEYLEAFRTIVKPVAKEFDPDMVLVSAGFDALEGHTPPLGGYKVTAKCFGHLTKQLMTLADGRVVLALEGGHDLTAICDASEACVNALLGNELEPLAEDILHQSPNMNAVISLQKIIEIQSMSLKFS
Sequence of HDAC2 (Q92769 whole entry): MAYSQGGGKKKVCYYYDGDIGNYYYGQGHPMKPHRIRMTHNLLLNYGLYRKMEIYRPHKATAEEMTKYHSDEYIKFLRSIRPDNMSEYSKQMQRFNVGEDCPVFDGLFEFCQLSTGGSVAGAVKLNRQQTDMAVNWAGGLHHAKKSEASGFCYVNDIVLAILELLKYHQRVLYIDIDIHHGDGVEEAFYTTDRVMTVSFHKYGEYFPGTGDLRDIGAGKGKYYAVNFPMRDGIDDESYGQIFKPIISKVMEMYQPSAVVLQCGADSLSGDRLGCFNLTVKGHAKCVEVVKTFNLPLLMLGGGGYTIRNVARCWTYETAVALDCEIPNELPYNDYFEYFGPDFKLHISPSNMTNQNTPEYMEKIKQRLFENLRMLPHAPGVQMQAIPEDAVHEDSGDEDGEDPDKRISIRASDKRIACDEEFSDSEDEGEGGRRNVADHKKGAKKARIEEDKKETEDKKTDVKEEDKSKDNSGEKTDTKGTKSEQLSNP
Sequence of HDAC5 (Q9UQL6 whole entry): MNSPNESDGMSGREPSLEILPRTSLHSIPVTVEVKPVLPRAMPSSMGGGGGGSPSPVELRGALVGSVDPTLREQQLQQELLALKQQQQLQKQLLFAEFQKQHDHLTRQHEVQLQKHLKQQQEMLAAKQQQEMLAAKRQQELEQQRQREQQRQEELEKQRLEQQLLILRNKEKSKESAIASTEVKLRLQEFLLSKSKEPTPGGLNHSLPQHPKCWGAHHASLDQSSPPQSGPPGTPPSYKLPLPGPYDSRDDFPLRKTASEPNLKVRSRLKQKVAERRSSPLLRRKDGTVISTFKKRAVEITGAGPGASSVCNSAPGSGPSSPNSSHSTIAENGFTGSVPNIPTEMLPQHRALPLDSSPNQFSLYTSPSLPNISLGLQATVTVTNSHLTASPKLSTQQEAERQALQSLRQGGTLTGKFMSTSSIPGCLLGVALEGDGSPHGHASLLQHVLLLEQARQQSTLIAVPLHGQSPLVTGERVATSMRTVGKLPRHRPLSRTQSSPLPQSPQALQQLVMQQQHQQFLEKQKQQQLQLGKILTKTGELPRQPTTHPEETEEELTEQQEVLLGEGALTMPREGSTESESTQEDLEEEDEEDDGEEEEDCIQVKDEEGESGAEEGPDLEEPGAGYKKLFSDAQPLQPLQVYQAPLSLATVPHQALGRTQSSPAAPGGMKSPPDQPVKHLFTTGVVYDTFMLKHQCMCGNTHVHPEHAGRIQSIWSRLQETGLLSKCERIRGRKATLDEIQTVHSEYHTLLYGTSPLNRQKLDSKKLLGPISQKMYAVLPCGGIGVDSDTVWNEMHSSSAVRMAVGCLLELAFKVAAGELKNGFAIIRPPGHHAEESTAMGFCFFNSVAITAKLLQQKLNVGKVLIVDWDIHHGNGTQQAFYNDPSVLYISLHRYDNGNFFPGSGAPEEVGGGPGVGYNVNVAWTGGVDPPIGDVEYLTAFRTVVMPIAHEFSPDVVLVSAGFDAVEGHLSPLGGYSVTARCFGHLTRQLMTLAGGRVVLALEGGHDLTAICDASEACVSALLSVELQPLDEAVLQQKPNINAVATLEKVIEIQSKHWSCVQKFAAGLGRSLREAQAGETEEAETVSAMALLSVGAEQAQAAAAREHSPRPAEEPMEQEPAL

Nc1ncn([C@H]2C[C@H](O)[C@@H](CO)O2)c(=O)n1 [5azaCytD, 5-aza-deoxycytidine]
Silencing of p16, semi-quantitative RT-PCR (p16 expression): reversed

C/C=C1\NC(=O)[C@H]2CSSCC/C=C/[C@H](CC(=O)N[C@H](C(C)C)C(=O)N2)OC(=O)[C@H](C(C)C)NC1=O [FR901228]
Sensitivity of HDAC3 to the inhibitor (HDAC3; Class 1 HDAC): Yes
Sensitivity of HDAC4 to the inhibitor (HDAC4): weak
Sensitivity of HDAC1 to the inhibitor (HDAC1): Yes
Sensitivity of HDAC6 to the inhibitor (HDAC6): weak

Nc1ccccc1NC(=O)c1ccc(CNC(=O)OCc2cccnc2)cc1 [MS-275]
Toxicity to cell lines compared to butyrate (H23 and SW13 cell lines): increased toxicity

O=C1N[C@@H](Cc2ccccc2)C(=O)N2CCC[C@@H]2C(=O)N[C@@H](CCCCCC(=O)[C@@H]2CO2)C(=O)N[C@H]1Cc1ccccc1 [Trapoxin] (cyclo(FF[dP][Aoe]))
Sensitivity of HDAC3 to the inhibitor (HDAC3; Class 1 HDAC): Yes
IC50 (HDAC3): ~0.1 µM
Sensitivity of HDAC10 to the inhibitor (HDAC10): No
Sensitivity of HDAC6 to the inhibitor (HDAC6): No

CC(/C=C/C(=O)NO)=C\[C@@H](C)C(=O)c1ccc(N(C)C)cc1 [Trichostatin A, trichostatin A]
Sensitivity of HDAC5 to the inhibitor (HDAC5): Yes
Sensitivity of HDAC9 to the inhibitor (HDAC9): Yes
Sensitivity of HDAC4 to the inhibitor (HDAC4): Yes
Sensitivity of HDAC1 to the inhibitor (HDAC1): Yes
Sensitivity of HDAC10 to the inhibitor (HDAC10): Yes
Sensitivity of Class 3 HDACs to the inhibitor (Class 3 HDACs): Resistance
Sensitivity of HDAC8 to the inhibitor (HDAC8): Yes
Sensitivity of HDAC6 to the inhibitor (HDAC6): Yes

CCCC(CCC)C(=O)O [Valpoic Acid, valproic acid]
Sensitivity of HDAC1 to the inhibitor (HDAC1): yes
Sensitivity of HDAC2 to the inhibitor (HDAC2): yes

CCCC(=O)[O-].[Na+] [sodium butyrate]
Induction of BRM, RT-PCR (BRM expression [1]; Panc-1 and H513 cell lines, butyrate treatment): failed to demonstrate an appreciable induction
Number of the ten BRG1/BRM-deficient cell lines showing BRM transcript re-expression, RT-PCR (BRM expression [1]; after butyrate treatment, of ten cell lines): eight
Upregulation of BRM, cyber-green quantitation PCR (BRM expression [1]; butyrate treatment, responding BRG1/BRM-deficient cell lines): 8-20 fold
Sensitivity of HDAC3 to the inhibitor (HDAC3): Yes
IC50 (HDAC3): ~300 µM
Sensitivity of HDAC1 to the inhibitor (HDAC1): Yes
IC50 (HDAC1): ~300 µM
Sensitivity of HDAC10 to the inhibitor (HDAC10): No
Sensitivity of Class 3 HDACs to the inhibitor (Class 3 HDACs): Resistance
Sensitivity of HDAC8 to the inhibitor (HDAC8): Yes
Time at which BRM protein levels returned to baseline after medium change (BRM expression [2]; 5 mM for three consecutive days, medium changed on fourth day (FIG. 3B)): 4 to 5 days
Change in BRM expression with continued treatment for an additional 48 hours (BRM expression [2]; SW13, after plateau (FIG. 3A)): Little change
Time at which BRM protein expression reached a plateau, western blot (BRM expression [2]; [3]): 24 h
Time at which upregulation of BRM protein was detected, western blot (BRM expression [2]; [3]): 12 h
Time BRM mRNA level remained elevated after removal, quantitative RT-PCR (BRM expression [2]; [4]): 3 days
Time at which BRM mRNA returned to baseline after removal, quantitative RT-PCR (BRM expression [2]; [4]): ≤ 4 days
Time BRM protein levels remained elevated after removal (BRM expression [2]; [5]): 72 h
Time at which BRM protein returned to near baseline after removal (BRM expression [2]; [5]): 96 h
Sensitivity of HDAC6 to the inhibitor (HDAC6): No
